We go through 1 molecule from patent publication US20170105926A1, “COMPOSITION COMPRISING EXTRACT OF ALPINE WORMWOOD” (AMOREPACIFIC CORPORATION, priority 2014, published 2017).

Type in all cases: cell-based, human
The test system of one assay is endothelin 1 (EDN1). Nature of the assay: Endothelin 1 ELISA assay of culture medium. As to conditions: melanocytes (KaMC) medium, 2 nM substance P; control group = 100%. As for the experimental part: When the density of the melanocytes on the 6-well plate reached about 80% (˜80% confluence), they were incubated for a total of 5 days with 2 nM of stress-inducing substance P (Bachem Fechemikalien, Bubendorf, Switzerland) or the alpine wormwood (Artemisia umbelliformis) extract of Example 1 of different concentrations (0, 0.1, 1, 2 and 5 ppm). The cells not treated with substance P or the alpine wormwood (Artemisia umbelliformis) extract of Example 1 were used as a control group.
The culture medium of the cells treated with the extract in (2) of Test Example 1 were recovered and the amount of endothelin 1 (EDN1) comprised in the medium was measured at 450 nm using the human total endothelin ELISA kit (MyBioSource, USA).
Endothelin content (%)=(Absorbance/Total protein content)×100 [Equation 1]
In general terms: In an ELISA, binding on a coated surface is turned into a signal by an enzyme label.

A further assay has as its system EDN1 (endothelin 1) gene. Nature of the assay: Gene expression assay by real-time PCR (EDN1). As to conditions: melanocytes (KaMC), 2 nM substance P, 5 days; control group = 1. As for the experimental part:
(§1) Melanocytes (KaMC) (KCTC 12015BP) deposited in the Korean Collection for Type Culture (KCTC) were cultured in M-254 medium (Gibco BRL, NY, USA) supplemented with Human Melanocyte Growth Supplement (HMGS; Gibco BRL, NY, USA) on a 6-well plate, while changing the medium every other day, in a 5% CO2 incubator at 37° C. until the cells occupied 95% of the plate area (95% confluence). […] The cells not treated with substance P or the alpine wormwood (Artemisia umbelliformis) extract of Example 1 were used as a control group. After removing the medium form the melanocytes cultured on the 6-well plate, the cells were washed 2 times with cold phosphate-buffered saline (PBS) and the remaining water was completely removed. […] 1 μL of the RNA was quantified using Synergy II (Biotek, USA). […] After adding 10 μL of Taqman Gene Expression Master Mix (Life Technologies, USA) and 1 μL of Assays-on-DemandTM (Life Technologies, USA) of NK1R (ACCESSION: NM_001058) and EDN1 (ACCESSION: NM_001168319) genes to 9 μL of the diluted cDNA, the expression of the genes was analyzed by relative quantification using 7500 Fast Real-Time PCR (Life Technologies, USA) with glyceraldehyde 3-phosphate dehydrogenase (GAPDH, ACCESSION: NM001256799) as a control gene. […]
A general note: Real-time PCR tracks product formation cycle by cycle.

Assay [1] has as its system NK1R (neurokinin 1 receptor) gene. Nature of the assay: Gene expression assay by real-time PCR (NK1R). As to conditions: melanocytes (KaMC), 2 nM substance P, 5 days; control group = 1. As for the experimental part:
as §1

`CSCC[C@H](NC(=O)[C@H](CC(C)C)NC(=O)CNC(=O)[C@H](Cc1ccccc1)NC(=O)[C@H](Cc1ccccc1)NC(=O)[C@H](CCC(N)=O)NC(=O)[C@H](CCC(N)=O)NC(=O)[C@@H]1CCCN1C(=O)[C@H](CCCCN)NC(=O)[C@@H]1CCCN1C(=O)[C@@H](N)CCCN=C(N)N)C(N)=O` [substance P]: in the assay on endothelin 1 (EDN1), the “content of endothelin 1 (absorbance/total protein content x 100)” value worked out at 124%. The “expression of the EDN1 gene (relative quantification vs GAPDH)” value in the assay with EDN1 (endothelin 1) gene was found to be 3.6. The “expression of the NK1R gene (relative quantification vs GAPDH)” value in assay [1] was found to be 4.2.
